Measured values from patent US10927123B2, “Modulators of the beta-3 adrenergic receptor useful for the treatment or prevention of disorders related thereto” (Arena Pharmaceuticals, Inc., priority 2016, dated 2021).

Target: Beta-3 Adrenergic Receptor (Homo sapiens (Human), UniProt P13945)
Experiment: HTRF cAMP antagonist assay (IC50 determination)
Format: cell-based
Details: CHO-K1 cells stably expressing recombinant receptor; antagonism of isoproterenol at EC90; cAMP readout
Method in brief: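 CHO-K1 cells stably expressing the recombinant receptor were preincubated with compound (10-point, 5-fold dilutions; top final typically 10 or 100 μM) in PBS with 1 mM IBMX, then stimulated with isoproterenol at its EC90 for 1 h at room temperature. cAMP was read by HTRF against an on-plate standard curve.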

Beta-3 Adrenergic Receptor, sequence (P13945 whole entry, species assumed): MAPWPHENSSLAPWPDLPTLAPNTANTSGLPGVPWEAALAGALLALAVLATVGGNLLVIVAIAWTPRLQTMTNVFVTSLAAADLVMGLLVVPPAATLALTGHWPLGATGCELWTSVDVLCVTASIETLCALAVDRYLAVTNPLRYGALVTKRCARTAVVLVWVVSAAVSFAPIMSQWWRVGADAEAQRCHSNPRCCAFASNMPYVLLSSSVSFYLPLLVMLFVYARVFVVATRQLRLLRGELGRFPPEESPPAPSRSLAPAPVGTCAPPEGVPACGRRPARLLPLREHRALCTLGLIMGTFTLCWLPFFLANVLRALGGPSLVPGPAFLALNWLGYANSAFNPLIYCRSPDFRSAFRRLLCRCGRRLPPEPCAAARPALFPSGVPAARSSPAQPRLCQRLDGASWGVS

IC50 [nM] | Structure (SMILES)
1110 | Cc1c(-c2ccc(CN)cc2)cccc1S(=O)(=O)N1CCC2(CC1)C[C@@H](NC[C@H](O)COc1cccc(S(=O)(=O)C3(CO)CC3)c1)CO2 [Compound 203, (S)-1-((R)-8-(4′-(aminomethyl)-2-methylbiphenyl-3-ylsulfonyl)-1-oxa-8-azaspiro[4.5]decan-3-ylamino)-3-(3-(1-(hydroxymethyl)cyclopropylsulfonyl)phenoxy)propan-2-ol]
504 | Cc1c(-c2ccc(C3(N)CC3)cc2)cccc1S(=O)(=O)N1CCC2(CC1)C[C@@H](NC[C@H](O)COc1cccc(S(=O)(=O)C3(CO)CC3)c1)CO2 [Compound 204, (S)-1-((R)-8-(4′-(1-aminocyclopropyl)-2-methylbiphenyl-3-ylsulfonyl)-1-oxa-8-azaspiro[4.5]decan-3-ylamino)-3-(3-(1-(hydroxymethyl)cyclopropylsulfonyl)phenoxy)propan-2-ol]
92.2 | CCOc1ccc(-c2ccc(CN)cc2)cc1S(=O)(=O)N1CCC2(CC1)C[C@H](NC[C@H](O)COc1cccc(S(=O)(=O)CC(N)=O)c1)CO2 [Compound 205, 2-(3-((S)-3-((S)-8-(4′-(aminomethyl)-4-ethoxybiphenyl-3-ylsulfonyl)-1-oxa-8-azaspiro[4.5]decan-3-ylamino)-2-hydroxypropoxy)phenylsulfonyl)acetamide]
403 | COc1c(-c2ccc(CN)cc2)cccc1S(=O)(=O)N1CCC2(CC1)C[C@H](NC[C@H](O)COc1cccc(S(=O)(=O)CC(N)=O)c1)CO2 [Compound 206, 2-(3-((S)-3-((S)-8-(4′-(aminomethyl)-2-methoxybiphenyl-3-ylsulfonyl)-1-oxa-8-azaspiro[4.5]decan-3-ylamino)-2-hydroxypropoxy)phenylsulfonyl)acetamide]
51.1 | COc1ccc(S(=O)(=O)N2CCC3(CC2)C[C@H](NC[C@H](O)COc2cccc(S(=O)(=O)C4(CO)CC4)c2)CO3)cc1-c1ccc(CN)cc1 [Compound 207, (S)-1-((S)-8-(4′-(aminomethyl)-6-methoxybiphenyl-3-ylsulfonyl)-1-oxa-8-azaspiro[4.5]decan-3-ylamino)-3-(3-(1-(hydroxymethyl)cyclopropylsulfonyl)phenoxy)propan-2-ol]
34.8 | COc1ccc(S(=O)(=O)N2CCC3(CC2)C[C@@H](NC[C@H](O)COc2cccc(S(=O)(=O)C4(CO)CC4)c2)CO3)cc1-c1ccc(CN)cc1 [Compound 208, (S)-1-((R)-8-(4′-(aminomethyl)-6-methoxybiphenyl-3-ylsulfonyl)-1-oxa-8-azaspiro[4.5]decan-3-ylamino)-3-(3-(1-(hydroxymethyl)cyclopropylsulfonyl)phenoxy)propan-2-ol]
8.79 | CCOc1ccc(-c2ccc(CN)cc2)cc1S(=O)(=O)N1CCC2(CC1)C[C@H](NC[C@H](O)COc1cccc(S(C)(=O)=O)c1F)CO2 [Compound 209, (S)-1-((S)-8-(4′-(aminomethyl)-4-ethoxybiphenyl-3-ylsulfonyl)-1-oxa-8-azaspiro[4.5]decan-3-ylamino)-3-(2-fluoro-3-(methylsulfonyl)phenoxy)propan-2-ol]
22.4 | NCCc1ccc(-c2cccc(S(=O)(=O)N3CCC4(CC3)C[C@H](NC[C@H](O)COc3cccc(S(=O)(=O)C(F)(F)CO)c3)CO4)c2)cc1 [Compound 210, (S)-1-((S)-8-(4′-(2-aminoethyl)biphenyl-3-ylsulfonyl)-1-oxa-8-azaspiro[4.5]decan-3-ylamino)-3-(3-(1,1-difluoro-2-hydroxyethylsulfonyl)phenoxy)propan-2-ol]
26.2 | NCCc1ccc(-c2cccc(S(=O)(=O)N3CCC4(CC3)C[C@H](NC[C@H](O)COc3cccc(S(=O)(=O)C5(CO)CC5)c3)CO4)c2)cc1 [Compound 211, (S)-1-((S)-8-(4′-(2-aminoethyl)biphenyl-3-ylsulfonyl)-1-oxa-8-azaspiro[4.5]decan-3-ylamino)-3-(3-(1-(hydroxymethyl)cyclopropylsulfonyl)phenoxy)propan-2-ol]
26 | NCCc1ccc(-c2cccc(S(=O)(=O)N3CCC4(CC3)C[C@@H](NC[C@H](O)COc3cccc(S(=O)(=O)C5(CO)CC5)c3)CO4)c2)cc1 [Compound 212, (S)-1-((R)-8-(4′-(2-aminoethyl)biphenyl-3-ylsulfonyl)-1-oxa-8-azaspiro[4.5]decan-3-ylamino)-3-(3-(1-(hydroxymethyl)cyclopropylsulfonyl)phenoxy)propan-2-ol]
18.6 | NCCc1ccc(-c2cccc(S(=O)(=O)N3CCC4(CC3)C[C@@H](NC[C@H](O)COc3cccc(S(=O)(=O)C(F)(F)CO)c3)CO4)c2)cc1 [Compound 213, (S)-1-((R)-8-(4′-(2-aminoethyl)biphenyl-3-ylsulfonyl)-1-oxa-8-azaspiro[4.5]decan-3-ylamino)-3-(3-(1,1-difluoro-2-hydroxyethylsulfonyl)phenoxy)propan-2-ol]

The remaining lines, values behind:

Structure (SMILES) | IC50 [nM]
CC(=O)NCCc1ccc(-c2cccc(S(=O)(=O)N3CCC4(CC3)C[C@@H](NC[C@H](O)COc3cccc(S(=O)(=O)C5(CO)CC5)c3)CO4)c2)cc1 [Compound 191, N-(2-(3′-((R)-3-((S)-2-hydroxy-3-(3-(1-(hydroxymethyl)cyclopropylsulfonyl)phenoxy)propylamino)-1-oxa-8-azaspiro[4.5]decan-8-ylsulfonyl)biphenyl-4-yl)ethyl)acetamide] | 440
Cc1c(Br)cccc1S(=O)(=O)N1CCC2(CC1)C[C@@H](NC[C@H](O)COc1cccc(S(=O)(=O)C3(CO)CC3)c1)CO2 [Compound 192, (S)-1-((R)-8-(3-bromo-2-methylphenylsulfonyl)-1-oxa-8-azaspiro[4.5]decan-3-ylamino)-3-(3-(1-(hydroxymethyl)cyclopropylsulfonyl)phenoxy)propan-2-ol] | 298
COc1ccc(S(=O)(=O)N2CCC3(CC2)C[C@@H](NC[C@H](O)COc2cccc(S(=O)(=O)C4(CO)CC4)c2)CO3)cc1Br [Compound 193, (S)-1-((R)-8-(3-bromo-4-methoxyphenylsulfonyl)-1-oxa-8-azaspiro[4.5]decan-3-ylamino)-3-(3-(1-(hydroxymethyl)cyclopropylsulfonyl)phenoxy)propan-2-ol] | 26.9
Cc1cc(S(=O)(=O)N2CCC3(CC2)C[C@@H](NC[C@H](O)COc2cccc(S(=O)(=O)C4(CO)CC4)c2)CO3)ccc1Br [Compound 194, (S)-1-((R)-8-(4-bromo-3-methylphenylsulfonyl)-1-oxa-8-azaspiro[4.5]decan-3-ylamino)-3-(3-(1-(hydroxymethyl)cyclopropylsulfonyl)phenoxy)propan-2-ol] | 13.6
O=S(=O)(c1cccnc1)N1CCC2(CC1)C[C@@H](NC[C@H](O)COc1cccc(S(=O)(=O)C3(CO)CC3)c1)CO2 [Compound 195, (S)-1-(3-(1-(hydroxymethyl)cyclopropylsulfonyl)phenoxy)-3-((R)-8-(pyridin-3-ylsulfonyl)-1-oxa-8-azaspiro[4.5]decan-3-ylamino)propan-2-ol] | 1530
Cc1cc(S(=O)(=O)N2CCC3(CC2)C[C@H](NC[C@H](O)COc2cccc(S(=O)(=O)C4(CO)CC4)c2)CO3)ccc1Br [Compound 196, (S)-1-((S)-8-(4-bromo-3-methylphenylsulfonyl)-1-oxa-8-azaspiro[4.5]decan-3-ylamino)-3-(3-(1-(hydroxymethyl)cyclopropylsulfonyl)phenoxy)propan-2-ol] | 34.6
Cc1c(-c2ccc(CN)cc2)cccc1S(=O)(=O)N1CCC2(CC1)C[C@H](NC[C@H](O)COc1cccc(S(=O)(=O)C3(CO)CC3)c1)CO2 [Compound 197, (S)-1-((S)-8-(4′-(aminomethyl)-2-methylbiphenyl-3-ylsulfonyl)-1-oxa-8-azaspiro[4.5]decan-3-ylamino)-3-(3-(1-(hydroxymethyl)cyclopropylsulfonyl)phenoxy)propan-2-ol] | 85
Cc1c(-c2ccc(C3(N)CC3)cc2)cccc1S(=O)(=O)N1CCC2(CC1)C[C@H](NC[C@H](O)COc1cccc(S(=O)(=O)C3(CO)CC3)c1)CO2 [Compound 198, (S)-1-((S)-8-(4′-(1-aminocyclopropyl)-2-methylbiphenyl-3-ylsulfonyl)-1-oxa-8-azaspiro[4.5]decan-3-ylamino)-3-(3-(1-(hydroxymethyl)cyclopropylsulfonyl)phenoxy)propan-2-ol] | 62.2
COc1ccc(S(=O)(=O)N2CCC3(CC2)C[C@@H](NC[C@H](O)COc2cccc(S(=O)(=O)C4(CO)CC4)c2)CO3)cc1-c1ccc(C2(N)CC2)cc1 [Compound 199, (S)-1-((R)-8-(4′-(1-aminocyclopropyl)-6-methoxybiphenyl-3-ylsulfonyl)-1-oxa-8-azaspiro[4.5]decan-3-ylamino)-3-(3-(1-(hydroxymethyl)cyclopropylsulfonyl)phenoxy)propan-2-ol] | 25
Cc1c(Br)cccc1S(=O)(=O)N1CCC2(CC1)C[C@H](NC[C@H](O)COc1cccc(S(=O)(=O)C3(CO)CC3)c1)CO2 [Compound 200, (S)-1-((S)-8-(3-bromo-2-methylphenylsulfonyl)-1-oxa-8-azaspiro[4.5]decan-3-ylamino)-3-(3-(1-(hydroxymethyl)cyclopropylsulfonyl)phenoxy)propan-2-ol] | 72.4
COc1ccc(S(=O)(=O)N2CCC3(CC2)C[C@H](NC[C@H](O)COc2cccc(S(=O)(=O)C4(CO)CC4)c2)CO3)cc1Br [Compound 201, (S)-1-((S)-8-(3-bromo-4-methoxyphenylsulfonyl)-1-oxa-8-azaspiro[4.5]decan-3-ylamino)-3-(3-(1-(hydroxymethyl)cyclopropylsulfonyl)phenoxy)propan-2-ol] | 41.8
O=S(=O)(c1cccnc1)N1CCC2(CC1)C[C@H](NC[C@H](O)COc1cccc(S(=O)(=O)C3(CO)CC3)c1)CO2 [Compound 202, (S)-1-(3-(1-(hydroxymethyl)cyclopropylsulfonyl)phenoxy)-3-((S)-8-(pyridin-3-ylsulfonyl)-1-oxa-8-azaspiro[4.5]decan-3-ylamino)propan-2-ol] | 346
